The subject of the experiment is weeds. Briefly: Actual control effects and combined effects of mixtures of active ingredients (i) and (ii), stem-leaf treatment, Gowing method. In kind it is in vivo. As to conditions: 20 days. How it is done:
According to the actual control effect and the property of the herbicides, the balance of the formula and other factors, the optimal ratio was determined. In the calculation formula: X represents the fresh weight inhibition rate when the active ingredient (i) is used in an amount of P; and Y represents the fresh weight inhibition rate when the active ingredient (ii) is used in an amount of Q. The statistical results are shown in Tables 9-11 below.

The mark [1] stands for this setting: Monochoria vaginalis, (ii) 3 g a.i./mu.
[2] abbreviates: Monochoria vaginalis, (ii) 3 g a.i./mu, stem-leaf treatment.
The mark [3] stands for this setting: Digitaria sanguinalis, (ii) 3 g a.i./mu, stem-leaf treatment.
Setting [4] is: Echinochloa phyllopogon, (ii) 3 g a.i./mu.
The mark [5] stands for this setting: 480 h, Echinochloa phyllopogon, (ii) 15 g a.i./mu, stem-leaf treatment, read-out: Control effect of (ii) alone at corresponding dose.
[6] abbreviates: 480 h, Echinochloa phyllopogon, (ii) 30 g a.i./mu, read-out: Control effect of (ii) alone at corresponding dose.
Setting [7] is: Echinochloa phyllopogon, (ii) 15 g a.i./mu.
Where [8] appears, read: 480 h, Echinochloa phyllopogon, (ii) 0.6 g a.i./mu, stem-leaf treatment, read-out: Control effect of (ii) alone at corresponding dose.
Where [9] appears, read: 480 h, Echinochloa phyllopogon, (ii) 3 g a.i./mu, stem-leaf treatment, read-out: Control effect of (ii) alone at corresponding dose.
[10] abbreviates: Echinochloa phyllopogon, (ii) 0.6 g a.i./mu.
[11] abbreviates: Echinochloa phyllopogon, (ii) 8 g a.i./mu.
[12] abbreviates: Leptochloa chinensis, (ii) 3 g a.i./mu.
The mark [13] stands for this setting: Leptochloa chinensis, (ii) 15 g a.i./mu.
The mark [14] stands for this setting: 480 h, Echinochloa phyllopogon, (ii) 0.6 g a.i./mu, read-out: Control effect of (ii) alone at corresponding dose.

Like-named read-outs stand apart in the source and are kept apart here.

As to `Cc1cc(Cl)ccc1OCC(=O)O` [MCPA], the “Control effect of (ii) alone at corresponding dose” value (“Control effect of (ii) alone” for short) is, setting by setting: under setting [1], 28.2%; under setting [2], 28.2%.

For the compound `O=C(O)CCCOc1ccc(Cl)cc1Cl` [2,4-D butyric acid], the “Control effect of (ii) alone” value is, setting by setting: under setting [1], 23.5%; under setting [2], 23.5%; (Monochoria vaginalis, (ii) 15 g a.i./mu) 65.3%; (Monochoria vaginalis, (ii) 15 g a.i./mu, stem-leaf treatment) 65.3%.

Consider `O=C1CCCC(=O)C1C(=O)c1c(Cl)ccc2cc(Cl)cnc12` [Quintrione], for which the “Control effect of (ii) alone” value turned out to be 15.2% under setting [3]; 15.8% under setting [4]; 15.8% (Echinochloa phyllopogon, (ii) 3 g a.i./mu, stem-leaf treatment); 66.7% (Echinochloa phyllopogon, (ii) 30 g a.i./mu); 66.7% (Echinochloa phyllopogon, (ii) 30 g a.i./mu, stem-leaf treatment).

Take `CCCCOCN(C(=O)CCl)c1c(CC)cccc1CC` [Butachlor]: the pest or weed control at […] under setting [5] was found to be 19.3%. In addition, the pest or weed control at 450 g/ha under setting [6] is 39.7%. The “Control effect of (ii) alone” value under setting [7] was determined as 19.3%.

Turning to `CC(C)c1ccc(NC(=O)N(C)C)cc1` [Isoproturon], the pest or weed control at 9 g/ha under setting [8] is 20.3%. Moreover, under setting [9], the pest or weed control at 45 g/ha came out at 40.2%. The “Control effect of (ii) alone” value by setting is: under setting [10], 20.3%; under setting [4], 40.2%.

Regarding `CCOc1cc(Oc2ccc(C(F)(F)F)cc2Cl)ccc1[N+](=O)[O-]` [Oxyfluorfen], where the note is “480 h, Echinochloa phyllopogon, (ii) 0.2 g a.i./mu, stem-leaf treatment, read-out: Control effect of (ii) alone at corresponding dose”, the pest or weed control at 3 g/ha is 6.7%. Further, the pest or weed control at 120 g/ha (480 h, Echinochloa phyllopogon, (ii) 8 g a.i./mu, stem-leaf treatment, read-out: Control effect of (ii) alone at corresponding dose) turned out to be 76.5%. Also, the “Control effect of (ii) alone” value worked out at 6.7% (Echinochloa phyllopogon, (ii) 0.2 g a.i./mu) and 76.5% under setting [11].

Take `COc1cc(OC)nc(NC(=O)NS(=O)(=O)c2c(C3=NOCC(C)O3)c(Cl)nn2C)n1` (centres unmarked) [Metazosulfuron]: the “Control effect of (ii) alone” value (Monochoria vaginalis, (ii) 1 g a.i./mu) is recorded as 25.6%; the “Control effect of (ii) alone” value (Monochoria vaginalis, (ii) 1 g a.i./mu, stem-leaf treatment) stood at 25.6%; the “Control effect of (ii) alone” value (Monochoria vaginalis, (ii) 1.2 g a.i./mu) was 30.3%.

Regarding `CCC(C)Nc1c([N+](=O)[O-])cc(C(C)(C)C)cc1[N+](=O)[O-]` (centres unmarked) [Butralin], under “480 h, Cyperus difformis, (ii) 3 g a.i./mu, stem-leaf treatment, read-out: Control effect of (ii) alone at corresponding dose”, the pest or weed control at 45 g/ha is 16.4%. The pest or weed control at 450 g/ha (480 h, Cyperus difformis, (ii) 30 g a.i./mu, read-out: Control effect of (ii) alone at corresponding dose) is 46.8%. For the setting “Cyperus difformis, (ii) 3 g a.i./mu”, the “Control effect of (ii) alone” value amounted to 16.4%.

With `CC(C)Oc1cc(-n2nc(C(C)(C)C)oc2=O)c(Cl)cc1Cl` [Oxadiazon], under setting [9], the pest or weed control at 45 g/ha is 14.3%. The pest or weed control at […] under setting [5] was determined as 41.3%. Besides, the “Control effect of (ii) alone” value reads like this: under setting [4], 14.3%; under setting [7], 41.3%.

Turning to `CCCCOC(=O)[C@@H](C)Oc1ccc(Oc2ccc(C#N)cc2F)cc1` [Cyhalofop-butyl], the pest or weed control at 45 g/ha under setting [9] worked out at 12.2%. For the setting “480 h, Echinochloa phyllopogon, (ii) 15 g a.i./mu, read-out: Control effect of (ii) alone at corresponding dose”, the pest or weed control at […] amounted to 45.1%. The “Control effect of (ii) alone” value under setting [4] is 12.2%.

As to `CCC(C)n1c(=O)[nH]c(C)c(Br)c1=O` (centres unmarked) [Bromacil], the pest or weed control at 45 g/ha under setting [9] was found to be 12.8%. Also, the pest or weed control at 450 g/ha under setting [6] is 59.7%. The “Control effect of (ii) alone” value under setting [4] was found to be 12.8%.

As for `CCCCCCCC(=O)Oc1c(Br)cc(C#N)cc1Br` [Bromoxynil octanoate], the pest or weed control at 9 g/ha (480 h, Sagittaria trifolia L., (ii) 0.6 g a.i./mu, read-out: Control effect of (ii) alone at corresponding dose) turned out to be 6.4%. For the setting “480 h, Sagittaria trifolia, (ii) 3 g a.i./mu, stem-leaf treatment, read-out: Control effect of (ii) alone at corresponding dose”, the pest or weed control at 45 g/ha is 12.5%. The “Control effect of (ii) alone” value (Sagittaria trifolia L., (ii) 3 g a.i./mu) is 12.5%.

Take `CSc1nc(NC(C)C)nc(NC(C)C)n1` [Prometryn]: the pest or weed control at 9 g/ha under setting [8] came out at 21.5%. Under “480 h, Echinochloa phyllopogon, (ii) 20 g a.i./mu, stem-leaf treatment, read-out: Control effect of (ii) alone at corresponding dose”, the pest or weed control at 300 g/ha was determined as 68.2%. Further, the “Control effect of (ii) alone” value is, setting by setting: under setting [10], 21.5%; (Echinochloa phyllopogon, (ii) 20 g a.i./mu) 68.2%.

For `CS(=O)(=O)c1ccc(C(=O)C2=C(Sc3ccccc3)C3CCC(C3)C2=O)c(Cl)c1` (centres unmarked) [Benzobicylon], the “Control effect of (ii) alone” value under setting [12] turned out to be 26.8%; the “Control effect of (ii) alone” value (Leptochloa chinensis, (ii) 3 g a.i./mu, stem-leaf treatment) was determined as 26.8%; the “Control effect of (ii) alone” value under setting [13] was 68.2%; the “Control effect of (ii) alone” value (Leptochloa chinensis, (ii) 15 g a.i./mu, stem-leaf treatment) was found to be 68.2%.

With Sanzuohuangcaotong, the “Control effect of (ii) alone” value by setting is: under setting [1], 21.5%; under setting [2], 21.5%; (Monochoria vaginalis, (ii) 6 g a.i./mu) 40.1%.

Turning to `C#CCN(C)c1c(C#N)cnn1-c1nn2c(c1Cl)CCCC2` [Pyraclonil], the “Control effect of (ii) alone” value by setting is: (Sagittaria trifolia L., (ii) 0.6 g a.i./mu) 9.3%; (Sagittaria trifolia L., (ii) 15 g a.i./mu) 72.5%; (Sagittaria trifolia, (ii) 15 g a.i./mu, stem-leaf treatment) 72.5%.

As for `CCSC(=O)N1CCCCCC1` [Molinate], under setting [9], the pest or weed control at 45 g/ha amounted to 7.8%. In addition, the pest or weed control at 450 g/ha under setting [6] was 40.6%. Moreover, the “Control effect of (ii) alone” value under setting [4] is given as 7.8%.

For `CCNc1nc(Cl)nc(NC(C)C)n1` [Atrazine], under setting [14], the pest or weed control at 9 g/ha stood at 2.3%. For the same compound, the pest or weed control at […] under setting [5] was determined as 30.6%. Also, the “Control effect of (ii) alone” value under setting [7] is 30.6%.

Regarding `CC(C)c1nn(C(=O)NC(C)(C)C)c(=O)n1N` [Amicarbazone], the “Control effect of (ii) alone” value is, setting by setting: under setting [1], 23.3%; under setting [2], 23.3%; (Monochoria vaginalis, (ii) 10 g a.i./mu) 51.6%; (Monochoria vaginalis, (ii) 10 g a.i./mu, stem-leaf treatment) 51.6%.

Consider `CCNc1nc(Cl)nc(NC(C)(C)C)n1` [Terbuthylazine], for which, under setting [14], the pest or weed control at 9 g/ha came to 0.95%. In addition, under setting [5], the pest or weed control at […] was found to be 18.6%. Moreover, under setting [7], the “Control effect of (ii) alone” value amounted to 18.6%.

As for `COP(=S)(OC)SCC(=O)N(c1ccc(Cl)cc1)C(C)(C)C` [Anilofos], the pest or weed control at 45 g/ha (Dinebra chinensis, 480 h, Leptochloa chinensis, (ii) 3 g a.i./mu, stem-leaf treatment, read-out: Control effect of (ii) alone at corresponding dose) was found to be 30.8%. Also, under “Dinebra chinensis, 480 h, Leptochloa chinensis, (ii) 30 g a.i./mu, read-out: Control effect of (ii) alone at corresponding dose”, the pest or weed control at 450 g/ha is 62.6%. In addition, the “Control effect of (ii) alone” value under setting [12] was determined as 30.8%.

Consider `Cn1[nH]c(C2CC2)c(C(=O)c2ccc(C(F)(F)F)c(N3CCCCC3=O)c2Cl)c1=O` [Huanbifucaotong], for which the “Control effect of (ii) alone” value worked out at 6.2% under setting [3]; 9.2% (Leptochloa chinensis, (ii) 0.5 g a.i./mu); 9.2% (Leptochloa chinensis, (ii) 0.5 g a.i./mu, stem-leaf treatment); 76.2% under setting [13].

For `Cc1nn(C)cc1C(=O)Oc1c(C(=O)c2ccc(C(F)(F)F)cc2S(C)(=O)=O)c(C)nn1C` [Shuangzuocaotong], the “Control effect of (ii) alone” value worked out at 75.1% (Digitaria sanguinalis, (ii) 8 g a.i./mu, stem-leaf treatment); 7.8% under setting [10]; 7.8% (Echinochloa phyllopogon, (ii) 0.6 g a.i./mu, stem-leaf treatment); 70.9% under setting [11]; 70.9% (Echinochloa phyllopogon, (ii) 8 g a.i./mu, stem-leaf treatment).
